Laboratory results as given in patent US20140221499A1, “NOVEL RODENT CONTROL AGENTS AND USES THEREOF” (priority 2011, published 2014).

Assays:
[1] = test system: mouse olfactory sensory neurons; test: Confocal calcium imaging of olfactory sensory neurons in tissue slices; type: cell-based
Procedure: The mammalian olfactory system encodes odor identity using combinations of olfactory receptors (11). […] Here, we used a confocal imaging strategy to record cytosolic calcium transients of single sensory neurons in real time. Viability of analyzed neurons was determined after odor exposures by KCl-induced depolarization.
Confocal calcium imaging of olfactory sensory neurons in tissue slices. Recordings were performed as described (Spehr M, et al. (2006) Essential role of the main olfactory system in social recognition of major histocompatibility complex peptide ligands. J Neurosci 26(7):1961-1970) with the following modifications. For calcium sensitive dye loading, slices of olfactory epithelium were incubated (30 min, 4° C.) in HEPES solution (in mM: 145 NaCl, 5 KCl, 1 CaCl2, 1 MgCl2, 10 HEPES; pH=7.3) containing Fluo-4/AM (2 μM; Molecular Probes). Slices were transferred to a recording chamber (Slice Mini Chamber, Luigs & Neumann, Ratingen, Germany) and visualized using a Leica DM6000CFS confocal fixed stage upright microscope (Leica Microsystems, Mannheim, Germany) equipped with an apochromatic water immersion objective (HC X APO L20x/1.0 W) and infrared-optimized differential interference contrast (DIC) optics. Slices were anchored via stainless steel wires with 0.1 mm lycra threads and continuously superfused with HEPES-buffered solution. Changes in cytosolic calcium were monitored over time at 1.0 Hz frame rate. Stimulus application as well as solution exchange during inter-stimulus intervals was achieved by a custom-made, pressure-driven focal application device consisting of a software-controlled valve bank connected to a 7-in-1 ‘perfusion pencil’. Rhodamine application controlled for uniform flow and even stimulus application throughout the epithelial sensory surface. Offline analysis of time-lapse experiments was performed using LAS-AF software (Leica). All cells in a given field of view were marked as individual regions of interest (ROIs), and the relative fluorescence intensity for each ROI was calculated and processed as a function of time.

[2] = molecular target: T1, rTAAR8c (Rattus norvegicus, UniProt Q923Y0); test: CRE-SEAP reporter gene assay in HEK293 cells transfected with rTAAR8c; type: cell-based; conditions: FIG. 11A, functional with or without 'Rho tag', EC50 ± s.e.m., 4-parameter Hill equation
T1 construct: Full Taar coding regions were cloned into pcDNA3.1; expressed in transfected cells; host or cells: HEK293
T1 sequence (Q923Y0 1-344): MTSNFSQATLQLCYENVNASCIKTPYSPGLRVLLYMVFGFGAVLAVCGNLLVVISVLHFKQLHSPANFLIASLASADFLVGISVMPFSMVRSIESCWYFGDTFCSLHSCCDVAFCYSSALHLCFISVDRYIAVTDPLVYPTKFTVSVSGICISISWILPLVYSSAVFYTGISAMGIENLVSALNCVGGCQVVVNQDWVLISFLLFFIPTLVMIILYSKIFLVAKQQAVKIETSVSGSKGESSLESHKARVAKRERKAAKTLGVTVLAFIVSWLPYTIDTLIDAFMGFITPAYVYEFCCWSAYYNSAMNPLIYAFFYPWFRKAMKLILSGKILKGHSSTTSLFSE
Procedure: FIG. 11 illustrates the dose-dependent responses of TAARs to amines. HEK293 cells were cotransfected with plasmids encoding CRE-SEAP and rTAARs (a) or mTAARs (b), incubated with concentrations of ligands indicated, and assayed for reporter activity (triplicates±s.d.). EC50 values (±s.e.m, bottom right) were calculated using SigmaPlot (Systat Software) and a 4-parameter Hill equation.
The following mixes (10 μM of each indicated compounds) were tested for their ability to activate rat TAARs. Mix 1: butylamine, dibutylamine, hexylamine. Mix 2: 2-aminopentane, isoamylamine, isobutylamine, isopropylamine. Mix 3: N,N-dimethylcyclohexylamine, 1-methylindole, tryptamine, phenylethylamine. Mix 4: indole, 1-methylpyrrolidine, 1-methylpiperidine, pyrrolidine. […]
Full Taar coding regions were cloned into pcDNA3.1-(Invitrogen) with or without a 5′ DNA extension of 69 bp encoding the first 20 amino acids of bovine rhodopsin followed by a cloning linker ([…]). […] Fluorescence was measured on an EnVision plate reader (Perkin Elmer) and SEAP activity graphed as relative fluorescence of a phosphatase substrate.
Here, we set out to identify agonists for additional mouse and rat TAARs. […] Transfected cells were incubated with test chemicals, and phosphatase activity was quantified with a fluorescent substrate as a reporter for TAAR activation. […]

Row | Structure (SMILES) | activation of olfactory sensory neurons ([1]; dorsal and ventral olfactory epithelium) | 2-phenylethylamine-responsive neurons activated by all four test stimuli ([1]; dorsal olfactory epithelium) | 2-phenylethylamine-responsive neurons distinguishing lion and giraffe urine and not responding to benzylamine ([1]; of 2-phenylethylamine-responsive neurons (13/52)) [%] | 2-phenylethylamine-responsive neurons distinguishing lion and giraffe urine and not responding to benzylamine ([1]; of all dorsal KCl-responsive neurons (13/1268)) [%] | EC50 [2] [nM]
1 | NCCc1ccccc1 [2-phenylethylamine] | activated a subset of KCl-responsive olfactory sensory neurons | 30/52 | 25 | ~1 | 
2 | CN(C)C1CCCCC1 [N,N-DIMETHYLCYCLOHEXYLAMINE, N,N-dimethylcyclohexylamine] |  |  |  |  | 550 ± 190
